“Also recorded” adds a separate entry of the source.
Experiments:
apoaequorin [1] = biological target: T1, apoaequorin (Aequorea victoria, UniProt P07164); assay: Luminescence spectra of semi-synthetic aequorins; assay type: biochemical; settings: semi-synthetic aequorin, calcium added, 22 to 25° C.
T1 construct: purchased Chisso Corporation
Description: In a quartz cell with light path length of 10 mm, 1 ml of 50 mM Tris-HCl (pH 7.6) containing 1 mM EDTA and 100 μl (100 μg protein) of a solution of the regenerated semi-synthetic aequorin were charged. Next, 100 μl of 50 mM Tris-HCl (pH 7.6) containing 0.1 ml of 10 mM calcium chloride solution was added thereto to start the luminescence reaction. The spectra were measured on a spectrofluorimeter (FP-6500, manufactured by Jasco Co., Ltd.) with the excitation light source turned off. The measurement conditions were bandwidth: 20 nm, response: 0.5 second, scan speed: 2000 nm/min and 22 to 25° C. The luminescence spectra measured were corrected.

apoaequorin [2] = biological target: T1, apoaequorin; assay: Fluorescence spectra of fluorescent proteins formed from semi-synthetic aequorins by Ca2+; assay type: physicochemical; settings: for Maximum fluorescence wavelength λmax (nm) / Relative fluorescence intensity (rlu): fluorescent protein generated by calcium from semi-synthetic aequorin, excitation 330 nm, 25° C.; for fluorescence spectra of fluorescent proteins versus emission spectra of semi-synthetic aequorins, in words: same coelenterazine analogue
Description: The fluorescence spectra of novel fluorescent proteins formed by the Ca^2+-triggerd reaction from semi-synthetic aequorins in EXAMPLE 3 were measured at 25° C. in a quartz cell (10 mm light path length) using a Jasco FP-6500 spectrofluorometer (excitation wavelength: 330 nm, emission/excitation bandwidth: 3 nm; response: 0.5 sec, scan speed, 1000 nm/min). The fluorescence spectra measured were corrected.

apoaequorin [3] = biological target: T1, apoaequorin; assay: Calcium standard curve with semi-synthetic aequorins; assay type: biochemical; settings: FIG. 3; Imax versus calcium concentration
Description: In 9 ml of 50 mM Tris-HCl (pH 7.6), 1 ml of 1 g/L calcium carbonate standard solution (manufactured by Wako Pure Chemicals) was diluted to prepare 10^−3 M calcium carbonate solution. One milliliter of the resulting 10^−3 M calcium carbonate solution was taken and added to 9 ml of 50 mM Tris-HCl (pH 7.6) to prepare 10^−4 M calcium carbonate solution. Next, 3 ml of the resulting 10^−4 M calcium carbonate solution was taken and added to 6 ml of 50 mM Tris-HCl (pH 7.6) to prepare […] calcium carbonate solution. One milliliter from the 10^−4 M calcium carbonate solution obtained was added to 9 ml of 50 mM Tris-HCl (pH 7.6) to prepare 10^−5 M calcium carbonate solution. Then, 3 ml of the resulting 10^−5 M calcium carbonate solution was taken and added to 6 ml of 50 mM Tris-HCl (pH 7.6) to prepare 3×10^−5 M calcium carbonate solution. A dilution series was prepared by successively repeating the procedures described above to give the 10^−3 M to 10^−8 M calcium standard solutions.
In 5 ml of 50 mM Tris-HCl (pH 7.6) containing 10 mM DTT and 30 mM EDTA, 5 mg of recombinant apoaequorin (manufactured by Chisso Corporation) was dissolved and 100 μg of coelenterazine analogue dissolved in ethanol in an amount of 1.2-fold equivalent was added to the solution. The mixture was allowed to stand at 4° C. overnight to convert into semi-synthetic aequorin. The resulting semi-synthetic aequorin was concentrated using Amicon Ultra-4 (manufactured by Millipore, Inc., molecular weight cut-off: 10,000) to remove an excessive of coelenterazine analogue. The mixture was then washed 3 times with 3 ml of 30 mM Tris-HCl (pH 7.6) containing 0.05 mM EDTA to give the solution of semi-synthetic aequorin containing 0.05 mM EDTA. This semi-synthetic aequorin solution (2.5 mg/ml) was diluted with 20 mM Tris-HCl (pH 7.6) containing 0.1% BSA (manufactured by Sigma), 0.01 mM EDTA and 150 mM NaCl.
The calcium standard solution prepared as above was dispensed into a 96-well microplate (Nunc #236108) at 50 μl/well and 10 μl of the diluted semi-synthetic aequorin solution was injected into 50 μl of various concentration of calcium standard solution. The luminescence intensity was measured for 60 seconds on a luminescence plate reader Centro LB960 (manufactured by Berthold) and expressed in terms of the maximum intensity (Imax) of luminescence. The luminescence intensity was measured on each semi-synthetic aequorin in the same procedures. Semi-synthetic aequorins for practically use were chosen by the maximum intensity (Imax) of luminescence and the calcium standard curve of semi-synthetic aequorin was prepared.

Renilla luciferase = biological target: T2, Renilla luciferase (Renilla reniformis, UniProt P27652); assay: Substrate specificity and luminescence activity of Renilla luciferase; assay type: biochemical; settings: measured for 10 seconds, coelenterazine = 100
T2 construct: made in house
T2 sequence (P27652 1-311): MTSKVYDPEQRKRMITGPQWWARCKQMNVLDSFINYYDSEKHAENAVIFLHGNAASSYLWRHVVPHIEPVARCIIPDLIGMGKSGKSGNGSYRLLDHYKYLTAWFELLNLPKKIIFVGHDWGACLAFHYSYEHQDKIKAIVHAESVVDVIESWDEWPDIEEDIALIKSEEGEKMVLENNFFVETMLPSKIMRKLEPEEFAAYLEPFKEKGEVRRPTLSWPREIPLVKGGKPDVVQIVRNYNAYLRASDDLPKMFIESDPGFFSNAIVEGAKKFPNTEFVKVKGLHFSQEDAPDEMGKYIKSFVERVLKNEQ
Description: Renilla luciferase was purified by the method described in Inouye, S. & Shimomura, O. Biochem. Biophys. Res. Commun. (1997) 233: 349-353, and used for assay.
(§1) After 1 μl of Renilla luciferase (0.45 mg/ml) was dissolved in 100 μl of 30 mM Tris-HCl (pH 7.6) containing 10 mM EDTA, 1 μl of a solution of coelenterazine or its analogue (1 μg/μl) in ethanol was added to the solution to start the luminescence reaction. The luminescence activity was measured for 10 seconds on a luminometer luminescencer-PSN AB2200 (manufactured by Atto Co., Ltd.). The luminescence activity was determined by repeating the measurement of luminescence activity described above 3 times and expressed in terms of the maximum luminescence intensity (Imax) of luminescence activity.

[4] = biological target: T3, 19 kDa protein from Oplophorus luciferase (Oplophorus gracilirostris, UniProt Q9GV45); assay: Substrate specificity and luminescence activity of the 19 kDa protein from Oplophorus luciferase; assay type: biochemical; settings: measured for 60 seconds, coelenterazine = 100
T3 construct: made in house
T3 sequence (Q9GV45 28-196): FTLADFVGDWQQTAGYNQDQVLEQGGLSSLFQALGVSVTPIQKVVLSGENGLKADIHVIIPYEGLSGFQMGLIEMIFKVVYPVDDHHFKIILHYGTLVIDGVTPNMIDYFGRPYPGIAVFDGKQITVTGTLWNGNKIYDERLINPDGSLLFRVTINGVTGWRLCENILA
Description: The 19 kDa protein from Oplophorus luciferase was purified by the method described in Inouye, S. and Sasaki, S., Protein Express. Purif. (2007) 56: 261-268 and provided for use.
as §1, with “of the 19 kDa protein (2.3 mg/ml) from Oplophorus” for “of Renilla”, “luciferase containing 1 mM DTT” for “luciferase (0.45 mg/ml)”, “luminescence reaction, and the” for “luminescence reaction. The”, “for 60” for “for 10”, “measurement” for “measurement of luminescence activity”

apoaequorin [5] = biological target: T1, apoaequorin; assay: Luminescence patterns of semi-synthetic aequorins, half decay time; assay type: biochemical; settings: for Half decay time: semi-synthetic aequorin, time in which luminescence becomes half of maximum, patterns measured for 60 seconds
Description: A solution of the regenerated semi-synthetic aequorin was diluted to 10-fold with 20 mM Tris-HCl (pH 7.6) containing 0.1% BSA (manufactured by Sigma, Inc.), 0.01 mM EDTA and 150 mM NaCl. The dilution was dispensed into a 96-well microplate (Nunc #236108) at 5 μl/well. The luminescence reaction was triggered by injecting 50 mM Tris-HCl (pH 7.6) containing 50 mM calcium chloride solution at 100 μl/well. The luminescence patterns for 60 seconds were measured to determine half decay time of the luminescence (a time period in which the luminescence becomes half of the maximum luminescence intensity).

Gaussia luciferase = assay: Substrate specificity and luminescence activity of Gaussia luciferase; assay type: biochemical; settings: measured for 10 seconds, coelenterazine = 100
Description: Gaussia luciferase was purified by the method described in Japanese Patent Application KOKAI No. 2008-099669 and provided for use. After 1 μl of Gaussia luciferase (0.024 mg/ml) was dissolved in 100 μl of phosphate buffered saline (manufactured by Sigma Inc.) containing 0.01% Tween 20 (manufactured by Sigma Inc.) and 10 mM EDTA, 1 μl of a solution of coelenterazine or its analogue (1 μg/μl) in ethanol was mixed with the solution to start the luminescence reaction. The luminescence activity was measured for 10 seconds on a luminometer luminescencer-PSN AB2200 (manufactured by Atto Co., Ltd.). The luminescence activity was determined by repeating the measurement described above 3 times and expressed in terms of the maximum luminescence intensity (Imax) of luminescence activity.

T1 sequence (P07164 other isoform, or with tags, fused parts or gaps with the stated changes): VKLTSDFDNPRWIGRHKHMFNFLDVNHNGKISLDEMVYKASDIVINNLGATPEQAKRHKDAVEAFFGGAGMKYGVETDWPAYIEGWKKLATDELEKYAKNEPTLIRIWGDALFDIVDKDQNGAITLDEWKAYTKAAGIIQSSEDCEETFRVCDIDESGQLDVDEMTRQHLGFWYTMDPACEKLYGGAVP

Row | SMILES | Maximum luminescence wavelength λmax (nm) (apoaequorin [1]) | Maximum fluorescence wavelength λmax (nm) (apoaequorin [2]) | Relative fluorescence intensity (rlu) (apoaequorin [2]) | fluorescence spectra of fluorescent proteins versus emission spectra of semi-synthetic aequorins, in words (apoaequorin [2]) | calcium standard curve with semi-synthetic aequorin, in words (apoaequorin [3]) | Luminescence activity Imax (%) (Renilla luciferase) | Luminescence activity Imax (%) [4] [%] | half decay time of luminescence compared to coelenterazine (native aequorin), in words (apoaequorin [5]) | Half decay time (apoaequorin [5]) [s] | Luminescence activity Imax (%) (Gaussia luciferase)
1 | O=c1c(Cc2ccc(O)cc2)nc2c(-c3cccs3)[nH]c(-c3ccc(O)cc3)cn1-2 [Compound 3f, 2-(4-Hydroxybenzyl)-6-(4-hydroxyphenyl)-8-(thiophen-2-yl)imidazo[1,2-α]pyrazin-3(7H)-one] | 515.0 | 525.0 | 38.5 | different luminescence spectra and fluorescence spectra | calcium standard curve can be prepared | 0.00 | 0.1 | markedly prolonged; also recorded: longer half decay time | >60 | 0.00
2 | O=c1c(Cc2ccc(O)cc2)nc2c(-c3cc4ccccc4s3)[nH]c(-c3ccc(O)cc3)cn1-2 [Compound 3h, 8-(Benzo[b]thiophen-2-yl)-2-(4-hydroxybenzyl)-6-(4-hydroxyphenyl)imidazo[1,2-a]pyrazin-3(7H)-one] | 532.5 | 537.0 | 58.7 | different luminescence spectra and fluorescence spectra | calcium standard curve can be prepared | 0.00 | 0.07 | longer half decay time | 1.71 | 0.00
3 | O=c1c(Cc2ccc(O)cc2)nc2c(-c3ccc(O)cc3)[nH]c(-c3ccc(O)cc3)cn1-2 [Compound 3j, 2-(4-Hydroxybenzyl)-6,8-bis(4-hydroxyphenyl)imidazo[1,2-a]pyrazin-3(7H)-one] | 457.5 | 580.0 | 13.3 | markedly different; also recorded: different luminescence spectra and fluorescence spectra | calcium standard curve can be prepared | 0.03 | 0.2 | markedly prolonged; also recorded: longer half decay time | 16.8 | 0.01
